Results taken from ChEMBL document CHEMBL1201862, “PubChem BioAssay data set” (2004).
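Tested at 5 concentrations; 48 h exposure; 96-well plates; endpoints linearly interpolated, else capped at highest concentration. GI50 = concentration required for 50% inhibition of growth.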 The source made the active and inactive calls. Rule as the data show it: active = GI50 up to about 1.1 µM and inactive = higher.

What was measured:
Assay in all cases: growth of human tumour cells (NCI), 48 h
786-0 = system: 786-0
M14 = system: M14
KM12 = system: KM12
A498 = system: A498
DU-145 = system: DU-145
UO-31 = system: UO-31
M19-MEL = system: M19-MEL
T47D = system: T47D
SN12C = system: SN12C
HCT-116 = system: HCT-116
XF498 = system: XF498
NCI-H522 = system: NCI-H522
Hs-578T = system: Hs-578T
UACC-257 = system: UACC-257
MDA-MB-435 = system: MDA-MB-435
MDA-N = system: MDA-N
DMS-114 = system: DMS-114
Malme-3M = system: Malme-3M
HOP-18 = system: HOP-18
PC-3 = system: PC-3

Row | SMILES | GI50 (786-0) | GI50 (M14) | GI50 (KM12) | GI50 (A498) | GI50 (DU-145) | GI50 (UO-31) | GI50 (M19-MEL) | GI50 (T47D) | GI50 (SN12C) | GI50 (HCT-116) | GI50 (XF498) | GI50 (NCI-H522) | GI50 (Hs-578T) | GI50 (UACC-257) | GI50 (MDA-MB-435) | GI50 (MDA-N) | GI50 (DMS-114) | GI50 (Malme-3M) | GI50 (HOP-18) | GI50 (PC-3)
1 | C/C(=N\N=C(/S)N1CCCCCC1)c1cccc[n+]1[O-] | 1.53 µM (inactive) | 2.72 µM (inactive) | 4.52 µM (inactive) | 21.6 µM (inactive) | 31.5 µM (inactive) | 7.55 µM (inactive) | 8.39 µM (inactive) | 3.4 µM (inactive) | 13.8 µM (inactive) | 0.433 µM (active) | 5.27 µM (inactive) | 0.592 µM (active) | 33 µM (inactive) | 1.33 µM (inactive) | 9.57 µM (inactive) | 6.47 µM (inactive) | 0.0198 µM (active) | 1.6 µM (inactive) | 18.2 µM (inactive) | 
2 | COc1ccc(/C=c2/s/c(=C(\C#N)c3nc4ccccc4[nH]3)n(-c3ccccc3)c2=O)cc1 | 12.8 µM (inactive) | > 56.9 µM (inactive) | 56.6 µM (inactive) | 24.8 µM (inactive) | 94.6 µM (inactive) | > 52.6 µM (inactive) | > 100 µM (inactive) | > 100 µM (inactive) | > 80.2 µM (inactive) | 24.7 µM (inactive) | 30.1 µM (inactive) | > 60.3 µM (inactive) | 4.45 µM (inactive) | > 100 µM (inactive) | 31.8 µM (inactive) | 30.8 µM (inactive) | 91 µM (inactive) | > 42.4 µM (inactive) | 25 µM (inactive) | 24 µM (inactive)
